Patent publication US20260256792A1, “TREATMENT OF CHRONIC SPONTANEOUS URTICARIA BY ADMINISTERING (R)-2-[3-[4-AMINO-3-(2-FLUORO-4-PHENOXY-PHENYL)PYRAZOLO[3,4-D]PYRIMIDIN-1-YL]PIPERIDINE-1-CARBONYL]-4-METHYL-4-[4-(OXETAN-3-YL)PIPERAZIN-1-YL]PENT-2-ENENITRILE” (priority 2023, published 2026)

Experiments:
IgG anti-TPO = test: Phase 2 CSU study: serum IgG anti-TPO ELISA; assay type: in vivo, human; conditions: for IgG anti-TPO (IU) Median Percent Change from Baseline: Baseline to Week 12
Text: (§1) Blood samples were also collected through Week 12 to evaluate the change in baseline in various biomarkers, including sMRGPRX2, IgG anti-TPO, IgG anti-FCεRI, IgG anti-IgE, and IL-31.
(§2) Collection of biological samples for other biomarker research was also part of this study. The following samples for biomarker research were required and were to be collected from all participants in this study: • Serum and plasma samples for soluble biomarkers and cellular tests. Analytes included IgG anti-IgE, IgG anti-FcεRI, IgG anti-TPO, IgE anti-TPO, IL-31, and sMRGPRX2. • Blood samples for immune cell phenotyping, including measurement of eosinophil levels • Blood samples for BTK occupancy in peripheral blood mononuclear cells (PBMCs) at selected sites
(§3) For each patient, serum samples were to be collected on each of four visits (Visits 2, 4, 6, and end of study/follow up).
(§4) Serum analyte testing was to be performed using the following commercial assays: • sMRGPRX2 ELISA (Cat. No. #MBS933336; MyBioSource) • IL-31 HTRF assay (Cat. No. #62HIL31PEG; Cisbio/PerkinElmer) • IgG anti-TPO ELISA (Cat. No. #ORG503; Orgentec Diagnostica GmbH)
(§5) If dilutions were to be prepared, the same dilutions were to be prepared twice from each sample. These were to be measured on different plates. Each plate was to include a standard curve. Samples were to be measured twice for all biomarkers except for sMRGPRX2. Mean measurement values were to be calculated, and the concentration of the biomarker was to be calculated using GraphPad Prism 9 software (4-PL model).
The IgG anti-TPO ELISA was performed according to the manufacturer's instructions.
(§6) Assay data ranges are described below. • sMRGPRX2: 0.1 ng/mL-10 ng/mL • IgG anti-FCεRI: 0-10000 arbitrary units (AU) • IgG anti-TPO: 0-3000 international units (IU) • IgE anti-TPO: 0-500 AU • IgG anti-IgE: 0-100000 AU • IL-31: 0.1 ng/mL-20 ng/mL

sMRGPRX2 = test: Phase 2 CSU study: serum sMRGPRX2 ELISA; assay type: in vivo, human; conditions: for SMRGPRX2 (ng/mL) Median Percent Change from Baseline: Baseline to Week 12
Text: as §1, §2, §3, §4, §5
For the sMRGPRX2 ELISA, measurements were performed according to the manufacturer's instructions. Single measurements were obtained for all samples.
as §6

[1] = humans, oral administration; cited from earlier work

SMILES: CC(C)(C=C(C#N)C(=O)N1CCC[C@@H](n2nc(-c3ccc(Oc4ccccc4)cc3F)c3c(N)ncnc32)C1)N1CCN(C2COC2)CC1 [rilzabrutinib, (R)-2-[3-[4-amino-3-(2-fluoro-4-phenoxy-phenyl)pyrazolo[3,4-d]pyrimidin-1-yl]piperidine-1-carbonyl]-4-methyl-4-[4-(oxetan-3-yl)piperazin-1-yl]pent-2-enenitrile]
- reduction from baseline for IgG anti-TPO (IgG anti-TPO; 400 mg TID, Week 12): 46.7%
- IgG anti-TPO (IU) Median Percent Change from Baseline (IgG anti-TPO; 400 mg BID): −19.4%
- IgG anti-TPO (IU) Median Percent Change from Baseline (IgG anti-TPO; 400 mg QPM): −39.9%
- IgG anti-TPO (IU) Median Percent Change from Baseline (IgG anti-TPO; 400 mg TID): −46.7%
- reduction from baseline median sMRGPRX2 levels (sMRGPRX2; 400 mg TID, Week 12): 22.8%
- SMRGPRX2 (ng/mL) Median Percent Change from Baseline (sMRGPRX2; 400 mg BID): −29.3%
- SMRGPRX2 (ng/mL) Median Percent Change from Baseline (sMRGPRX2; 400 mg QPM): −31.1%
- SMRGPRX2 (ng/mL) Median Percent Change from Baseline (sMRGPRX2; 400 mg TID): −22.8%
- absorption [1]: rapidly absorbed
- half-life [1]: 3 to 4 h
